# According to patent publication US20250136606A1, “MODULATORS OF TRPML, THEIR COMPOSITIONS AND METHODS OF USE” (Caraway Therapeutics, Inc., priority 2021, published 2025):
# Where two headings read alike, the source gives them in different places.
# Key:
# Format in all cases: cell-based
# TRPML2 = target: T1, TRPML2 (Homo sapiens, UniProt Q8IZK6); test: Fluorescent TRPML2 assay (performed as for TRPML1, substituting the TRPML2 subtype)
# T1 construct: expressed in transfected cells
# T1 sequence (Q8IZK6 1-566): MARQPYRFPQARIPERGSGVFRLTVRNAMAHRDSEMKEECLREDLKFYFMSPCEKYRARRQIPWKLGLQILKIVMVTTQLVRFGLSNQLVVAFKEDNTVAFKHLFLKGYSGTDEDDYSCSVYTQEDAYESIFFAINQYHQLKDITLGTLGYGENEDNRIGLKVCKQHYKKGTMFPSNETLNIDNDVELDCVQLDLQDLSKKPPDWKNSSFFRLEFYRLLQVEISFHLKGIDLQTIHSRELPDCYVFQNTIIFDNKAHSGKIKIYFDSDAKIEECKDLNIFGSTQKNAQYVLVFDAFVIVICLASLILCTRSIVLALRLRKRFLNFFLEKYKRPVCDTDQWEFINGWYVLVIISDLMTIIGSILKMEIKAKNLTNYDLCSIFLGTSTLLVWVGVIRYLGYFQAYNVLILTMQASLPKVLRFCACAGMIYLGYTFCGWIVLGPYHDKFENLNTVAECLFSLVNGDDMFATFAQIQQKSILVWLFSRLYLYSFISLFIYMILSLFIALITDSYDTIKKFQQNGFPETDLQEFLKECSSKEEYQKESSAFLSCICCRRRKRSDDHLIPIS
# Summary of the method: (§1)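 Compound series (final 6 nM-20 μM, half-log, triplicate) were added to Fluo4-AM-loaded HEK-293 Trex cells in 10 mM calcium Ringer's, expressing the human TRPML subtype after doxycycline 0.5 ug/mL induction. Percent activity versus positive/negative controls from 480/540 nm fluorescence; EC50 by non-linear regression.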
# TRPML3 = target: T2, TRPML3 (Homo sapiens, UniProt Q8TDD5); test: Fluorescent TRPML3 assay (performed as for TRPML1, substituting the TRPML3 subtype)
# T2 construct: expressed in transfected cells
# T2 sequence (Q8TDD5 1-553): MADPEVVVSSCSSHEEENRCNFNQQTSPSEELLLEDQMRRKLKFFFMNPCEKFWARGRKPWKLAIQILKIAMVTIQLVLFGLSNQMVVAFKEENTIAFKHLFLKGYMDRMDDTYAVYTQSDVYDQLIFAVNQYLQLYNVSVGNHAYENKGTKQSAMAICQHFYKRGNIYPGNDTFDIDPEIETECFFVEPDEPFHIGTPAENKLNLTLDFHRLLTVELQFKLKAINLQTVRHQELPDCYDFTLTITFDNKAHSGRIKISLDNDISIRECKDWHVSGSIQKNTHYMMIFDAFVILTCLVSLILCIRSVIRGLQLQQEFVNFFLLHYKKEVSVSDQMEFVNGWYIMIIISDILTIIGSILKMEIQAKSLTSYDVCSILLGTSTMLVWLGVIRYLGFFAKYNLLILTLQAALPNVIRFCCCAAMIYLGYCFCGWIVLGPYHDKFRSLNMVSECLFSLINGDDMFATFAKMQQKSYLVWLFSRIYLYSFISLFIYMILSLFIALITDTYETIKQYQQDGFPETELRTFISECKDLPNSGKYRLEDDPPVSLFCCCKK
# Summary of the method: as §1
# TRPML1 = TRPML1 (Homo sapiens, UniProt Q9GZU1); test: Fluorescent TRPML1 assay (Fluo4-AM calcium fluorescence in doxycycline-induced HEK-293 Trex cells)
# Summary of the method: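 HEK-293 Trex cells stably carrying human TRPML1 (surface-trafficking mutant) were induced overnight with 0.5 ug/mL doxycycline, loaded with 1 micromolar Fluo4-AM, and suspended in Ringer's with 10 mM calcium. Compounds at 20 micromolar to 6 nanomolar final, half-log steps, triplicate; fluorescence 480/540 nm gave percent activity versus controls and EC50 by non-linear regression.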
# Sequence of TRPML1 (Q9GZU1 whole entry L15A/L16A/L577A/L578A, form open): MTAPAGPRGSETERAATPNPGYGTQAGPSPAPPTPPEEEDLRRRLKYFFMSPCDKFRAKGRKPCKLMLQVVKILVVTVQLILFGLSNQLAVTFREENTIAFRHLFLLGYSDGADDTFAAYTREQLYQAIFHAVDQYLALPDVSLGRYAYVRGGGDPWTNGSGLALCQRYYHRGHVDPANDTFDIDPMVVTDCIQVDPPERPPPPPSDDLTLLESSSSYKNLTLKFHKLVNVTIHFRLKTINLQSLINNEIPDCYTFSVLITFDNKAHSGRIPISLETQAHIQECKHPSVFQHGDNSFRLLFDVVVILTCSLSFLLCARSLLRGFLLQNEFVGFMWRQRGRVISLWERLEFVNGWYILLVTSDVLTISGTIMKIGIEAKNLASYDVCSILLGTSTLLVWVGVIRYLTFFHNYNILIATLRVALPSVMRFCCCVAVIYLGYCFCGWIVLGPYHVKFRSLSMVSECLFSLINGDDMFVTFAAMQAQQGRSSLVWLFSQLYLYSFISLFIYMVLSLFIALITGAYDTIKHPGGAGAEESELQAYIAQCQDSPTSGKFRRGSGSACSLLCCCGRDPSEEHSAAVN
SMILES,EC50 (TRPML2; fluorescent calcium assay) [nM],EC50 (TRPML3; fluorescent calcium assay) [nM],EC50 (TRPML1; fluorescent calcium assay) [nM],EC50 (TRPML2) [nM],EC50 (TRPML3) [nM],EC50 (TRPML1) [nM]
"Cc1cncc(-n2cc(C3CC3)c3c(N4C[C@@H](C)N(C(=O)OC(C)(C)C)C[C@@H]4C)ncnc32)c1 [Compound 165, tert-butyl (2R,5S)-4-(5-cyclopropyl-7-(5-methylpyridin-3-yl)-7H-pyrrolo[2,3-d]pyrimidin-4-yl)-2,5-dimethylpiperazine-1-carboxylate]",500 to 2000,100 to 500,100 to 500,,,
"C[C@H]1CN(C(=O)OC(C)(C)C)CCN1c1ncnc2c1c(-c1nccnc1F)cn2-c1cccc(Cl)c1 [Compound 267, tert-butyl (S)-4-(7-(3-chlorophenyl)-5-(3-fluoropyrazin-2-yl)-7H-pyrrolo[2,3-d]pyrimidin-4-yl)-3-methylpiperazine-1-carboxylate]",100 to 500,< 100,100 to 500,,,
"C[C@@H]1CN(C(=O)OC(C)(C)C)CCN1c1ncnc2c1c(C1CCCC1)cn2-c1cccc(Cl)c1 [Compound 157, tert-butyl (R)-4-(7-(3-chlorophenyl)-5-cyclopentyl-7H-pyrrolo[2,3-d]pyrimidin-4-yl)-3-methylpiperazine-1-carboxylate]",100 to 500,< 100,100 to 500,,,
"C[C@H]1CN(C(=O)OC(C)(C)C)CCN1c1ncnc2c1c(C1CC1)cn2-c1cccc(F)c1 [Compound 127, tert-butyl (S)-4-(5-cyclopropyl-7-(3-fluorophenyl)-7H-pyrrolo[2,3-d]pyrimidin-4-yl)-3-methylpiperazine-1-carboxylate]",100 to 500,< 100,< 100,,,
"C[C@H]1CN(C(=O)OC(C)(C)C)CCN1c1ncnc2c1c(-c1nccnc1C#N)cn2-c1cccc(Cl)c1 [Compound 274, tert-butyl (S)-4-(7-(3-chlorophenyl)-5-(3-cyanopyrazin-2-yl)-7H-pyrrolo[2,3-d]pyrimidin-4-yl)-3-methylpiperazine-1-carboxylate]",500 to 2000,100 to 500,100 to 500,,,
"Cc1cncc(-n2cc(-c3cccnc3)c3c(N4CCN(C(=O)OC(C)(C)C)C[C@@H]4C)ncnc32)c1 [Compound 177, tert-butyl (S)-3-methyl-4-(7-(5-methylpyridin-3-yl)-5-(pyridin-3-yl)-7H-pyrrolo[2,3-d]pyrimidin-4-yl)piperazine-1-carboxylate]",> 2000,500 to 2000,500 to 2000,,,
"COc1cncc(-n2cc(-c3ccccc3F)c3c(N4CCN(C(=O)OC(C)(C)C)C[C@@H]4C)ncnc32)c1 [Compound 105, tert-butyl (S)-4-(5-(2-fluorophenyl)-7-(5-methoxypyridin-3-yl)-7H-pyrrolo[2,3-d]pyrimidin-4-yl)-3-methylpiperazine-1-carboxylate]",> 2000,500 to 2000,500 to 2000,,,
"C[C@@H]1CN(c2ncnc3c2c(N2CCCC2)cn3-c2cccc(OC(F)(F)F)c2)CCN1C(=O)OC(C)(C)C [Compound 311, tert-butyl (R)-2-methyl-4-(5-(pyrrolidin-1-yl)-7-(3-(trifluoromethoxy)phenyl)-7H-pyrrolo[2,3-d]pyrimidin-4-yl)piperazine-1-carboxylate]",< 100,< 100,< 100,,,
"C[C@H]1CN(C(=O)OC(C)(C)C)CCN1c1ncnc2c1c(C1CC1)cn2-c1ccc(F)cc1 [Compound 128, tert-butyl (S)-4-(5-cyclopropyl-7-(4-fluorophenyl)-7H-pyrrolo[2,3-d]pyrimidin-4-yl)-3-methylpiperazine-1-carboxylate]",100 to 500,< 100,< 100,,,

# Now from value to compound:
EC50 (TRPML2; fluorescent calcium assay) [nM],EC50 (TRPML3; fluorescent calcium assay) [nM],EC50 (TRPML1; fluorescent calcium assay) [nM],EC50 (TRPML2) [nM],EC50 (TRPML3) [nM],EC50 (TRPML1) [nM],SMILES
500 to 2000,< 100,< 100,,,,"C[C@H]1CN(C(=O)OC(C)(C)C)CCN1c1ncnc2c1c(C1(C)CC1)cn2-c1cccc(C#N)c1 [Compound 402, tert-butyl (S)-4-(7-(3-cyanophenyl)-5-(1-methylcyclopropyl)-7H-pyrrolo[2,3-d]pyrimidin-4-yl)-3-methylpiperazine-1-carboxylate]"
< 100,< 100,< 100,,,,"C[C@H]1CN(C(=O)OC(C)(C)C)CCN1c1ncnc2c1c(-c1ccccn1)cn2-c1cc(C#N)ccn1 [Compound 352, tert-butyl (S)-4-(7-(4-cyanopyridin-2-yl)-5-(pyridin-2-yl)-7H-pyrrolo[2,3-d]pyrimidin-4-yl)-3-methylpiperazine-1-carboxylate]"
,,,< 100,< 100,< 100,"C[C@@H]1CN(c2ncnc3c2c(C(C)(C)C)cn3-c2cc(C#N)ncn2)[C@@H](C)CN1C(=O)OC(C)(C)C [Compound 533, tert-butyl (2R,5S)-4-(5-(tert-butyl)-7-(6-cyanopyrimidin-4-yl)-7H-pyrrolo[2,3-d]pyrimidin-4-yl)-2,5-dimethylpiperazine-1-carboxylate]"
< 100,< 100,< 100,,,,"C[C@@H]1CN(c2ncnc3c2c(N(C)C)cn3-c2cc(C#N)ccn2)CCN1C(=O)OC(C)(C)C [Compound 427, tert-Butyl (R)-4-(7-(4-cyanopyridin-2-yl)-5-(dimethylamino)-7H-pyrrolo[2,3-d]pyrimidin-4-yl)-2-methylpiperazine-1-carboxylate]"
< 100,< 100,< 100,,,,"CC(C)(C)OC(=O)N1CCN(c2ncnc3c2c(-c2ccccc2F)cn3-c2cc(C#N)ccn2)C(C)(C)C1 [Compound 420, tert-butyl 4-(7-(4-cyanopyridin-2-yl)-5-(2-fluorophenyl)-7H-pyrrolo[2,3-d]pyrimidin-4-yl)-3,3-dimethylpiperazine-1-carboxylate]"
,,,100 to 500,< 100,< 100,"C[C@@H]1CN(c2ncnc3c2c(C(F)(F)F)cn3-c2cc(C#N)ccn2)[C@@H](C)CN1C(=O)OC1(C(F)(F)F)CCC1 [Compound 604, 1-(trifluoromethyl)cyclobutyl (2R,5S)-4-(7-(4-cyanopyridin-2-yl)-5-(trifluoromethyl)-7H-pyrrolo[2,3-d]pyrimidin-4-yl)-2,5-dimethylpiperazine-1-carboxylate]"
100 to 500,< 100,< 100,,,,"CC(C)(C)OC(=O)N1CCCN(c2ncnc3c2c(C2CC2)cn3-c2cc(C#N)ccn2)CCC1 [Compound 482, tert-butyl 5-(7-(4-cyanopyridin-2-yl)-5-cyclopropyl-7H-pyrrolo[2,3-d]pyrimidin-4-yl)-1,5-diazocane-1-carboxylate]"
< 100,< 100,< 100,,,,"C[C@H]1CN(C(=O)OC(C)(C)C)CCN1c1ncnc2c1c(-c1ccccc1F)cn2-c1cc(C#N)ncn1 [Compound 437, tert-butyl (S)-4-(7-(6-cyanopyrimidin-4-yl)-5-(2-fluorophenyl)-7H-pyrrolo[2,3-d]pyrimidin-4-yl)-3-methylpiperazine-1-carboxylate]"
100 to 500,< 100,< 100,,,,"C[C@H]1CN(C(=O)OC(C)(C)C)CCN1c1ncnc2c1c(C1CC1)cn2-c1cc(C#N)n(C)c1 [Compound 445, tert-butyl (S)-4-(7-(5-cyano-1-methyl-1H-pyrrol-3-yl)-5-cyclopropyl-7H-pyrrolo[2,3-d]pyrimidin-4-yl)-3-methylpiperazine-1-carboxylate]"
< 100,< 100,< 100,,,,"C[C@H]1CN(C(=O)OC(C)(C)C)CCN1c1ncnc2c1c(-c1ccncc1F)cn2-c1cc(C#N)ccn1 [Compound 355, tert-butyl (S)-4-(7-(4-cyanopyridin-2-yl)-5-(3-fluoropyridin-4-yl)-7H-pyrrolo[2,3-d]pyrimidin-4-yl)-3-methylpiperazine-1-carboxylate]"
,,,500 to 2000,100 to 500,< 100,"[2H]C([2H])([2H])[C@@H]1CN(c2ncnc3c2c(C2CC2)cn3-c2cc(C#N)ccn2)[C@@H](C)CN1C(=O)OC(C)(C)C [Compound 711, tert-butyl (2R,5S)-4-(7-(4-cyanopyridin-2-yl)-5-cyclopropyl-7H-pyrrolo[2,3-d]pyrimidin-4-yl)-5-methyl-2-(methyl-d3)piperazine-1-carboxylate]"
